Results as given in US10208074B2, “Pyrazole compounds and method for making and using the compounds” (Rigel Pharmaceuticals, Inc., priority 2015, dated 2019).
Where a name gives a salt, the structure may show the parent alone. Read-outs that look alike come from different tables or passages of the source.

What was measured:
[1] = test system: IL-23 (p19/p40); test: IL23-p19 ELISA, Dendritic, LPS (compound screening using DC cells); format: cell-based, Human; conditions: PBMC-derived DC cells, IFNγ primed, LPS 1 μg/ml, 18 hours, 10 pt, read-out: IL23-p19 ELISA, Dendritic, LPS, 10 pt, EC50
Method in brief: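 Human PBMC-derived dendritic cells (7 d GM-CSF 100 ng/ml + IL-4 20 ng/ml), primed 24 h with IFNγ 50 ng/ml, pre-incubated 1 h with compound, then stimulated 18 h with LPS 1 μg/ml. Supernatant IL-23 measured by p19-capture/p40-detection chemiluminescent ELISA; CellTiter Glo checks cytotoxicity.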

[2] = test system: IL-23p19; test: LPS induced IL23p19 in THP-1 cells (with IFNγ primed) assay; format: cell-based, Human; conditions: THP-1 cells, IFNγ primed, LPS 1 ug/mL, 18 hours, 10 pt, read-out: IL23-p19 ELISA, THP1-IFNy, LPS, 10 pt EC50
Method in brief: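 THP-1 cells primed ~18 h with IFNγ (50 ng/mL), pre-incubated 1 h with compound at 37 °C, then stimulated 18 h with LPS (1 ug/mL final). Supernatant IL-23p19 measured by sandwich ELISA with chemiluminescent read-out; EC50 from curve fitting. Toxicity checked on the remaining cells by Cell Titer Glo.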

| SMILES | EC50 ([1]; Homo sapiens, 18 h) [nM] | EC50 ([2]; Homo sapiens, THP-1, 18 h) [nM] | also measured |
| --- | --- | --- | --- |
| CC(C)(C)NC(=O)N1CC(n2cc(NC(=O)c3ccc(-c4cn[nH]c4)o3)c(-c3ccccn3)n2)C1 [Compound I-84, 3-[4-{5-(1H-Pyrazol-4-yl)furan-2-carboxamido}-3-(pyridine-2-yl)-1H-pyrazol-1-yl]-N-(tert-butyl)azetidine-1-carboxamide, free base] | 97.7 | 42.3 | – |
| CC(C)NC(=O)N1CC(n2cc(NC(=O)c3ccc(-c4cn[nH]c4)o3)c(-c3ccccn3)n2)C1 [Compound I-85, 3-[4-{5-(1H-Pyrazol-4-yl)furan-2-carboxamido}-3-(pyridine-2-yl)-1H-pyrazol-1-yl]-N-isopropylazetidine-1-carboxamide, free base] | 19.6 | 76.7 | – |
| CCCNC(=O)N1CC(n2cc(NC(=O)c3ccc(-c4cn[nH]c4)o3)c(-c3ccccn3)n2)C1 [Compound I-86, 3-[4-{5-(1H-Pyrazol-4-yl)furan-2-carboxamido}-3-(pyridine-2-yl)-1H-pyrazol-1-yl]-N-propylazetidine-1-carboxamide, free base] | 63.7 | 61.4 | – |
| O=C(Nc1cn(C2CN(C(=O)NC3CC3)C2)nc1-c1ccccn1)c1ccc(-c2cn[nH]c2)o1 [Compound I-87, 3-[4-{5-(1H-Pyrazol-4-yl)furan-2-carboxamido}-3-(pyridine-2-yl)-1H-pyrazol-1-yl]-N-cyclopropylazetidine-1-carboxamide, formate salt] | 105 | 43.3 | – |
| O=C(Nc1cn(C2CN(C(=O)C3CC3)C2)nc1-c1ccccn1)c1ccc(-c2cn[nH]c2)o1 [Compound I-89, N-[1-{1-(Cyclopropanecarbonyl)azetidin-3-yl}-3-(pyridine-2-yl)-1H-pyrazol-4-yl]-5-(1H-pyrazol-4-yl)furan-2-carboxamide, formate salt] | 23.1 | 16.6 | – |
| CC(C)(C)C(=O)N1CC(n2cc(NC(=O)c3ccc(-c4cn[nH]c4)o3)c(-c3ccccn3)n2)C1 [Compound I-91, N-[1-{1-Pivaloylazetidin-3-yl}-3-(pyridine-2-yl)-1H-pyrazol-4-yl]-5-(1H-pyrazol-4-yl)furan-2-carboxamide, formate salt] | 10.6 | 12.2 | – |
| O=C(Nc1cn(C2CN(C(=O)N3CCCC3)C2)nc1-c1ccccn1)c1ccc(-c2cn[nH]c2)o1 [Compound I-93, 5-(1H-Pyrazol-4-yl)-N-{3-(pyridine-2-yl)-1-(pyrrolidine-1-carbonyl)azetidin-3-yl}-1H-pyrazol-4-yl)furan-2-carboxamide, formate salt] | 8 | 10.8 | – |
| CC(C)C(=O)N1CC(n2cc(NC(=O)c3ccc(-c4cn[nH]c4)o3)c(-c3ccccn3)n2)C1 [Compound I-95, N-[1-{1-Isobutyrylazetidin-3-yl}-3-(pyridine-2-yl)-1H-pyrazol-4-yl]-5-(1H-pyrazol-4-yl)furan-2-carboxamide, formate salt] | 33.8 | 67.8 | – |
| O=C(Nc1cn(C2CN(CC(F)(F)F)C2)nc1-c1ccccn1)c1ccc(-c2cn[nH]c2)o1 [Compound I-97, TFA salt] | 32.9 | 36.2 | – |
| CCCC(=O)N1CC(n2cc(NC(=O)c3ccc(-c4cn[nH]c4)o3)c(-c3ccccn3)n2)C1 [Compound I-99, N-[1-{1-Butyrylazetidin-3-yl}-3-(pyridine-2-yl)-1H-pyrazol-4-yl]-5-(1H-pyrazol-4-yl)furan-2-carboxamide, formate salt] | 15.6 | 18 | – |
| CN1CC(n2cc(NC(=O)c3ccc(-c4cn[nH]c4)o3)c(-c3ccccn3)n2)C1 [Compound I-101, N-{1-(1-Methylazetidin-3-yl)-3-(pyridine-2-yl)-1H-pyrazol-4-yl}-5-(1H-pyrazol-4-yl)furan-2-carboxamide, formate salt] | 50.1 | 14.3 | – |
| O=C(Nc1cn(C2CN(C(=O)C3CC3(F)F)C2)nc1-c1ccccn1)c1ccc(-c2cn[nH]c2)o1 (stereo not shown) [Compound I-103, N-[1-{1-(2,2-difluorocyclopropane-1-carbonyl)azetidin-3-yl}-3-(pyridine-2-yl)-1H-pyrazol-4-yl]-5-(1H-pyrazol-4-yl)furan-2-carboxamide, formate salt] | 55.4 | 31 | – |
| CN1CCN(c2ccc(-c3nn(C)cc3NC(=O)c3ccc(-c4cn[nH]c4)o3)nc2)CC1 [Compound I-106, N-(1-methyl-3-(5-(4-methylpiperazin-1-yl)pyridin-2-yl)-1H-pyrazol-4-yl)-5-(1H-pyrazol-4-yl)furan-2-carboxamide] | 1220 | 18900 | – |
| Cn1cc(NC(=O)c2ccc(-c3cn[nH]c3)o2)c(-c2ccc(OCC(C)(C)O)cn2)n1 [Compound I-107, N-(3-(5-(2-hydroxy-2-methylpropoxy)pyridin-2-yl)-1-methyl-1H-pyrazol-4-yl)-5-(1H-pyrazol-4-yl)furan-2-carboxamide] | 305 | 860 | – |
| Cn1cc(NC(=O)c2ccc(-c3cn[nH]c3)o2)c(-c2ccc(OC3COC3)cn2)n1 [Compound I-108, N-(1-methyl-3-(5-(oxetan-3-yloxy)pyridin-2-yl)-1H-pyrazol-4-yl)-5-(1H-pyrazol-4-yl)furan-2-carboxamide] | 730 | 491 | – |
| COc1ccc(-c2nn(C)cc2NC(=O)c2ccc(-c3cn[nH]c3)o2)nc1 [Compound I-109, N-(3-(5-methoxypyridin-2-yl)-1-methyl-1H-pyrazol-4-yl)-5-(1H-pyrazol-4-yl)furan-2-carboxamide] | 22.1 | 104 | – |
| CC(C)n1cc(NC(=O)c2ccc(-c3cn[nH]c3)o2)c(-c2ccccn2)n1 [Compound I-110, N-(1-isopropyl-3-(pyridin-2-yl)-1H-pyrazol-4-yl)-5-(1H-pyrazol-4-yl)furan-2-carboxamide] | 388 | 279 | – |
| O=C(Nc1cn(CCN2CCOCC2)nc1-c1ccccn1)c1ccc(-c2cn[nH]c2)o1 [Compound I-111, N-(1-(2-morpholinoethyl)-3-(pyridin-2-yl)-1H-pyrazol-4-yl)-5-(1H-pyrazol-4-yl)furan-2-carboxamide] | 26.8 | 29.1 | – |
| CN1CCN(CCn2cc(NC(=O)c3ccc(-c4cn[nH]c4)o3)c(-c3ccccn3)n2)CC1 [Compound I-112, N-(1-(2-(4-methylpiperazin-1-yl)ethyl)-3-(pyridin-2-yl)-1H-pyrazol-4-yl)-5-(1H-pyrazol-4-yl)furan-2-carboxamide] | 40.7 | 42.8 | – |
| CC(C)O[C@H]1C[C@@H](n2cc(NC(=O)c3ccc(-c4cn[nH]c4)o3)c(-c3ccccn3)n2)C1 [Compound I-114, N-(1-((1s,3s)-3-isopropoxycyclobutyl)-3-(pyridin-2-yl)-1H-pyrazol-4-yl)-5-(1H-pyrazol-4-yl)furan-2-carboxamide] | 61.6 | 49.3 | – |
| O=C(Nc1cn(C(F)F)nc1-c1ccccn1)c1ccc(-c2cn[nH]c2)o1 [Compound I-115, N-(1-(difluoromethyl)-3-(pyridin-2-yl)-1H-pyrazol-4-yl)-5-(1H-pyrazol-4-yl)furan-2-carboxamide] | 365 | 91.3 | – |
| CCO[C@H]1C[C@@H](n2cc(NC(=O)c3ccc(-c4cn[nH]c4)o3)c(-c3cccc(C(F)(F)F)n3)n2)C1 [Compound I-116, N-(1-((1s,3s)-3-ethoxycyclobutyl)-3-(6-(trifluoromethyl)pyridin-2-yl)-1H-pyrazol-4-yl)-5-(1H-pyrazol-4-yl)furan-2-carboxamide] | 218 | 226 | – |
| O=C(Nc1cn(CC(F)(F)F)nc1-c1ccccn1)c1ccc(-c2cn[nH]c2)o1 [Compound I-117, 5-(1H-pyrazol-4-yl)-N-(3-(pyridin-2-yl)-1-(2,2,2-trifluoroethyl)-1H-pyrazol-4-yl)furan-2-carboxamide] | 25.7 | 284 | – |
| CCOCCn1cc(NC(=O)c2ccc(-c3cn[nH]c3)o2)c(-c2nccs2)n1 [Compound I-118, N-(1-(2-ethoxyethyl)-3-(thiazol-2-yl)-1H-pyrazol-4-yl)-5-(1H-pyrazol-4-yl)furan-2-carboxamide formate] | – | – | EC50 ([1]; formate): 161 nM; EC50 ([2]; formate): 68.1 nM |
| CCOCCn1cc(NC(=O)c2ccc(-c3cn[nH]c3)o2)c(-c2nccs2)n1 [Compound I-119, N-(1-(2-ethoxyethyl)-3-(thiazol-2-yl)-1H-pyrazol-4-yl)-5-(1H-pyrazol-4-yl)furan-2-carboxamide] | – | – | EC50 [1]: 430 nM; EC50 [2]: 154 nM |
| O=C(Nc1cn(C2CCOC2)nc1-c1nccs1)c1ccc(-c2cn[nH]c2)o1 (stereo not shown) [Compound I-120, 5-(1H-pyrazol-4-yl)-N-(1-(tetrahydrofuran-3-yl)-3-(thiazol-2-yl)-1H-pyrazol-4-yl)furan-2-carboxamide formate] | 94.8 | 52.8 | – |
